Assay results from ChEMBL document CHEMBL3797190, “Development of 3,5-Dinitrobenzylsulfanyl-1,3,4-oxadiazoles and Thiadiazoles as Selective Antitubercular Agents Active Against Replicating and Nonreplicating Mycobacterium tuberculosis” (J Med Chem, 2016).
Values after ≈ are worked out from the molar mass of the structure shown.

What was measured:
Format in all cases: functional
Mycobacterium kansasii [1] = assay: Antimycobacterial activity against Mycobacterium kansasii CNCTC My 6509/96 after 21 days by microdilution method; details: CNCTC My 6509/96, 504 h
Klebsiella pneumoniae [2] = assay: Antibacterial activity against ESBL producing Klebsiella pneumoniae J 14368/08 after 24 to 48 hrs by broth microdilution method
Candida tropicalis = assay: Antifungal activity against Candida tropicalis 156 after 24 to 48 hrs by broth microdilution method
Escherichia coli = assay: Antibacterial activity against Escherichia coli ATCC 8739 after 24 to 48 hrs by broth microdilution method
Aspergillus fumigatus = assay: Antifungal activity against Aspergillus fumigatus 231 after 24 to 48 hrs by broth microdilution method
[3] = system: Staphylococcus epidermidis; assay: Antibacterial activity against Staphylococcus epidermidis H 6966/08 after 24 to 48 hrs by broth microdilution method
[4] = system: Trichophyton mentagrophytes; assay: Antifungal activity against Trichophyton mentagrophytes 445 after 72 to 120 hrs by broth microdilution method
Mycobacterium avium [5] = assay: Antimycobacterial activity against Mycobacterium avium CNCTC My 330/88 after 14 days by microdilution method; details: CNCTC My 330/88, 336 h
Candida albicans = assay: Antifungal activity against Candida albicans ATCC 44859 after 24 to 48 hrs by broth microdilution method
Pichia kudriavzevii = assay: Antifungal activity against Candida krusei E28 after 24 to 48 hrs by broth microdilution method
Klebsiella pneumoniae [6] = assay: Antibacterial activity against Klebsiella pneumoniae D 11750/08 after 24 to 48 hrs by broth microdilution method
Enterococcus faecalis = assay: Antibacterial activity against Enterococcus faecalis J 14365/08 after 24 to 48 hrs by broth microdilution method
Trichosporon asahii = assay: Antifungal activity against Trichosporon asahii 1188 after 24 to 48 hrs by broth microdilution method
Mycobacterium avium [7] = assay: Antimycobacterial activity against Mycobacterium avium CNCTC My 330/88 after 21 days by microdilution method; details: CNCTC My 330/88, 504 h
Lichtheimia corymbifera = assay: Antifungal activity against Absidia corymbifera 272 after 24 to 48 hrs by broth microdilution method
Staphylococcus aureus [8] = assay: Antibacterial activity against Staphylococcus aureus ATCC 6538 after 24 to 48 hrs by broth microdilution method
Staphylococcus aureus [9] = assay: Antibacterial activity against methicillin-resistant Staphylococcus aureus H 5996/08 after 24 to 48 hrs by broth microdilution method
Nakaseomyces glabratus = assay: Antifungal activity against Candida glabrata 20/I after 24 to 48 hrs by broth microdilution method
Pseudomonas aeruginosa = assay: Antibacterial activity against Pseudomonas aeruginosa ATCC 9027 after 24 to 48 hrs by broth microdilution method
[10] = system: Mycobacterium tuberculosis; assay: Antimycobacterial activity against Mycobacterium tuberculosis CNCTC My 331/88 after 21 days by microdilution method; details: CNCTC My 331/88, 504 h
Mycobacterium kansasii [11] = assay: Antimycobacterial activity against Mycobacterium kansasii CNCTC My 6509/96 after 7 days by microdilution method; details: CNCTC My 6509/96, 168 h
Mycobacterium kansasii [12] = assay: Antimycobacterial activity against Mycobacterium kansasii CNCTC My 235/80 after 7 days by microdilution method; details: CNCTC My 235/80, 168 h
Mycobacterium kansasii [13] = assay: Antimycobacterial activity against Mycobacterium kansasii CNCTC My 235/80 after 14 days by microdilution method; details: CNCTC My 235/80, 336 h
Mycobacterium kansasii [14] = assay: Antimycobacterial activity against Mycobacterium kansasii CNCTC My 6509/96 after 14 days by microdilution method; details: CNCTC My 6509/96, 336 h
[15] = system: Mycobacterium tuberculosis; assay: Antimycobacterial activity against Mycobacterium tuberculosis CNCTC My 331/88 after 14 days by microdilution method; details: CNCTC My 331/88, 336 h
Mycobacterium kansasii [16] = assay: Antimycobacterial activity against Mycobacterium kansasii CNCTC My 235/80 after 21 days by microdilution method; details: CNCTC My 235/80, 504 h

SMILES | MIC99 (Mycobacterium kansasii [1]) [µM] | MIC99 (Mycobacterium avium [5]) [µM] | MIC99 (Mycobacterium avium [7]) [µM] | MIC99 [10] [µM] | MIC99 (Mycobacterium kansasii [11]) [µM] | MIC99 (Mycobacterium kansasii [12]) [µM] | MIC99 (Mycobacterium kansasii [13]) [µM] | MIC99 (Mycobacterium kansasii [14]) [µM] | MIC99 [15] [µM] | MIC99 (Mycobacterium kansasii [16]) [µM] | other results
O=[N+]([O-])c1cc(CSc2nnc(-c3ccc(Cl)cc3)o2)cc([N+](=O)[O-])c1 | 0.5 (≈ 0.196 µg/mL) | > 125 | > 125 | – | – | – | – | – | – | – | MIC95 (Klebsiella pneumoniae [2]): > 125 µM; MIC80 (Candida tropicalis): > 125 µM; MIC95 (Escherichia coli): > 125 µM; MIC50 (Aspergillus fumigatus): > 125 µM; MIC95 [3]: > 125 µM; MIC50 [4]: > 125 µM; MIC80 (Candida albicans): > 125 µM; MIC80 (Pichia kudriavzevii): > 125 µM; MIC95 (Klebsiella pneumoniae [6]): > 125 µM; MIC95 (Enterococcus faecalis): > 125 µM; MIC80 (Trichosporon asahii): > 125 µM; MIC50 (Lichtheimia corymbifera): > 125 µM; MIC95 (Staphylococcus aureus [8]): > 125 µM; MIC95 (Staphylococcus aureus [9]): > 125 µM; MIC80 (Nakaseomyces glabratus): > 125 µM; MIC95 (Pseudomonas aeruginosa): > 125 µM
CCCCCCCCCCCc1nnc(SCc2cc([N+](=O)[O-])cc([N+](=O)[O-])c2)o1 | 0.25 (≈ 0.109 µg/mL) | 4 (≈ 1.75 µg/mL) | 8 (≈ 3.49 µg/mL) | 0.25 (≈ 0.109 µg/mL) | 0.25 (≈ 0.109 µg/mL) | 0.125 (≈ 0.0546 µg/mL) | 0.25 (≈ 0.109 µg/mL) | 0.25 (≈ 0.109 µg/mL) | 0.25 (≈ 0.109 µg/mL) | 0.25 (≈ 0.109 µg/mL) | MIC95 (Klebsiella pneumoniae [2]): > 125 µM; MIC80 (Candida tropicalis): > 125 µM; MIC95 (Escherichia coli): > 125 µM; MIC50 (Aspergillus fumigatus): > 125 µM; MIC95 [3]: > 125 µM; MIC50 [4]: > 125 µM; MIC80 (Candida albicans): > 125 µM; MIC80 (Pichia kudriavzevii): > 125 µM; MIC95 (Klebsiella pneumoniae [6]): > 125 µM; MIC95 (Enterococcus faecalis): > 125 µM; MIC80 (Trichosporon asahii): > 125 µM; MIC50 (Lichtheimia corymbifera): > 125 µM; MIC95 (Staphylococcus aureus [8]): > 125 µM; MIC95 (Staphylococcus aureus [9]): > 125 µM; MIC80 (Nakaseomyces glabratus): > 125 µM; MIC95 (Pseudomonas aeruginosa): > 125 µM
O=[N+]([O-])c1ccc(CSc2nnc(-c3ccc(Cl)cc3)s2)c([N+](=O)[O-])c1 | 4 (≈ 1.64 µg/mL) | 4 (≈ 1.64 µg/mL) | 8 (≈ 3.27 µg/mL) | 4 (≈ 1.64 µg/mL) | 1 (≈ 0.409 µg/mL) | 1 (≈ 0.409 µg/mL) | 2 (≈ 0.818 µg/mL) | 2 (≈ 0.818 µg/mL) | 2 (≈ 0.818 µg/mL) | 4 (≈ 1.64 µg/mL) | MIC95 (Klebsiella pneumoniae [2]): > 125 µM; MIC80 (Candida tropicalis): > 125 µM; MIC95 (Escherichia coli): > 125 µM; MIC50 (Aspergillus fumigatus): > 125 µM; MIC95 [3]: > 125 µM; MIC50 [4]: > 125 µM; MIC80 (Candida albicans): > 125 µM; MIC80 (Pichia kudriavzevii): > 125 µM; MIC95 (Klebsiella pneumoniae [6]): > 125 µM; MIC95 (Enterococcus faecalis): > 125 µM; MIC80 (Trichosporon asahii): > 125 µM; MIC50 (Lichtheimia corymbifera): > 125 µM; MIC95 (Staphylococcus aureus [8]): > 125 µM; MIC95 (Staphylococcus aureus [9]): > 125 µM; MIC80 (Nakaseomyces glabratus): > 125 µM; MIC95 (Pseudomonas aeruginosa): > 125 µM
Nc1cc(N)cc(CSc2nnc(-c3ccc([N+](=O)[O-])cc3)s2)c1 | 250 (≈ 89.9 µg/mL) | 250 (≈ 89.9 µg/mL) | 250 (≈ 89.9 µg/mL) | 250 (≈ 89.9 µg/mL) | 250 (≈ 89.9 µg/mL) | 250 (≈ 89.9 µg/mL) | 250 (≈ 89.9 µg/mL) | 250 (≈ 89.9 µg/mL) | 250 (≈ 89.9 µg/mL) | 250 (≈ 89.9 µg/mL) | –
Cc1ccc(-c2nnc(SCc3cc([N+](=O)[O-])cc(C(F)(F)F)c3)o2)cc1 | > 32 | > 500 | > 500 | > 32 | > 32 | > 32 | > 32 | > 32 | > 32 | > 32 | –
O=[N+]([O-])c1ccc(-c2nnc(SCc3cc([N+](=O)[O-])cc(C(F)(F)F)c3)o2)cc1 | 32 (≈ 13.6 µg/mL) | > 500 | > 500 | 32 (≈ 13.6 µg/mL) | 16 (≈ 6.82 µg/mL) | 16 (≈ 6.82 µg/mL) | 32 (≈ 13.6 µg/mL) | 32 (≈ 13.6 µg/mL) | 32 (≈ 13.6 µg/mL) | 32 (≈ 13.6 µg/mL) | –
O=[N+]([O-])c1cc(CSc2nnc(-c3ccncc3)s2)cc([N+](=O)[O-])c1 | 1 (≈ 0.375 µg/mL) | > 125 | > 125 | 0.125 (≈ 0.0469 µg/mL) | 0.5 (≈ 0.188 µg/mL) | 0.5 (≈ 0.188 µg/mL) | 1 (≈ 0.375 µg/mL) | 1 (≈ 0.375 µg/mL) | 0.125 (≈ 0.0469 µg/mL) | 1 (≈ 0.375 µg/mL) | –
O=[N+]([O-])c1ccc(CSc2nnc(-c3ccncc3)o2)c([N+](=O)[O-])c1 | 32 (≈ 11.5 µg/mL) | 62 (≈ 22.3 µg/mL) | 62 (≈ 22.3 µg/mL) | 8 (≈ 2.87 µg/mL) | 32 (≈ 11.5 µg/mL) | 16 (≈ 5.75 µg/mL) | 32 (≈ 11.5 µg/mL) | 32 (≈ 11.5 µg/mL) | 8 (≈ 2.87 µg/mL) | 32 (≈ 11.5 µg/mL) | –
O=[N+]([O-])c1ccc(-c2nnc(SCc3cc([N+](=O)[O-])cc(C(F)(F)F)c3)s2)cc1 | > 32 | > 500 | > 500 | > 32 | > 32 | > 32 | > 32 | > 32 | > 32 | > 32 | –
Cc1nnc(SCc2cc([N+](=O)[O-])cc([N+](=O)[O-])c2)o1 | 32 (≈ 9.48 µg/mL) | 500 (≈ 148 µg/mL) | 500 (≈ 148 µg/mL) | 8 (≈ 2.37 µg/mL) | 16 (≈ 4.74 µg/mL) | 4 (≈ 1.19 µg/mL) | 8 (≈ 2.37 µg/mL) | 16 (≈ 4.74 µg/mL) | 4 (≈ 1.19 µg/mL) | 16 (≈ 4.74 µg/mL) | –
O=[N+]([O-])c1cc(CSc2nnc(-c3ccc(Cl)cc3)s2)cc(C(F)(F)F)c1 | > 32 | > 500 | > 500 | > 32 | > 32 | > 32 | > 32 | > 32 | > 32 | > 32 | –
Cc1nnc(SCc2cc([N+](=O)[O-])cc([N+](=O)[O-])c2)s1 | 16 (≈ 5 µg/mL) | 125 (≈ 39 µg/mL) | 125 (≈ 39 µg/mL) | 4 (≈ 1.25 µg/mL) | 8 (≈ 2.5 µg/mL) | 4 (≈ 1.25 µg/mL) | 4 (≈ 1.25 µg/mL) | 8 (≈ 2.5 µg/mL) | 4 (≈ 1.25 µg/mL) | 8 (≈ 2.5 µg/mL) | –
